For this assay, the target named is Glutamate [NMDA] receptor. Briefly: Inhibitory activity against NMDA receptor using [3H]-CGS- 19755 as radioligand. In kind it is protein-complex assay.

With `O=C(O)[C@@H]1C[C@H]2C[C@@H](CCc3nn[nH]n3)CC[C@H]2CN1` [TEZAMPANEL ANHYDROUS], the IC50 is 12.1 µM.

Broadly, the IC50 is the concentration needed to halve the response being measured. A lower IC50 goes with greater potency in that assay.
